Reference: patent US20100143995A1, “Process for Fermentive Preparation of Alcohols and Recovery of Product” (E. I. DU PONT DE NEMOURS AND COMPANY, priority 2008, published 2010)

How the values were obtained:
[1] = Extraction of isobutanol from an aqueous solution by ionic liquid (HPLC); type: physicochemical; conditions: isobutanol in aqueous solution after mixing 3 mL of about 31 g/L isobutanol with 150 microliters (5 vol %) ionic liquid, overnight equilibration, control 436
Method: (§1) Ethanol and isobutanol concentration in the solution was measured using HPLC as described above following thorough mixing and overnight equilibration of the contents of the vial.

[2] = Extraction of ethanol from an aqueous solution by ionic liquid (HPLC); type: physicochemical; conditions: ethanol in aqueous solution after mixing 3 mL of about 31 g/L ethanol with 150 microliters (5 vol %) ionic liquid, overnight equilibration, control 655
Method: as §1

[3] = system: Saccharomyces cerevisiae (W1362 20A); assay: Glucose Uptake Index of Saccharomyces cerevisiae culture in YPD medium with ionic liquid added; conditions: 5% (v/v) ionic liquid added after 4 h, further 16 h at 30° C., GUI of control without ionic liquid 79.0 (Ex. 1-5) or 100 (Ex. 6-8)

CCOCC[N+](C)(C)CCN1C(=O)CCC1C (centres unmarked) [Example 3, 1-(N,N,N-dimethyl(ethylethoxy)aminoethyl)-5-methyl-pyrrolidine-2-one bis(trifluoromethane)sulfonamide]
mM isobutanol ([1]; listed as [MeDMEEAP] [Tf2N]): 398 mM
mM Ethanol ([2]; listed as [MeDMEEAP] [Tf2N]): 637 mM
GUI of Sample (Glucose Utilization Index in the presence of 5% (v/v) of the ionic liquid phase) [3]: 80.4

CCC[N+](C)(C)CCN1C(=O)CCC1C.O=S(=O)([N-]S(=O)(=O)C(F)(F)F)C(F)(F)F (centres unmarked) [Example 6, 1-(N,N,N-dimethylpropylaminoethyl)-5-methylpyrrolidone-2-one bis(trifluoromethane)sulfonamide]
mM isobutanol [1]: 387 mM
GUI of Sample (Glucose Utilization Index in the presence of 5% (v/v) of the ionic liquid phase) [3]: 100

CCOCC[N+](C)(C)CCN1C(=O)CCC1C (centres unmarked) [Example 2, 1-(N,N,N-dimethyl(ethylethoxy)aminoethyl)-5-methyl-pyrrolidine-2-one hexafluoropropanesulfonate]
mM isobutanol ([1]; listed as [MeDMEEAP] [HFPS]): 422 mM
mM Ethanol ([2]; listed as [MeDMEEAP] [HFPS]): 656 mM
GUI of Sample (Glucose Utilization Index in the presence of 5% (v/v) of the ionic liquid phase) [3]: 34.0

COCC[N+](C)(C)CCN1C(=O)CCC1C.O=S(=O)([N-]S(=O)(=O)C(F)(F)F)C(F)(F)F (centres unmarked) [Example 7, 1-(N,N,N-dimethyl(methylethoxy)aminoethyl)-5-methylpyrrolidone-2-one bis(trifluoromethane)sulfonamide]
mM isobutanol [1]: 389 mM
mM Ethanol [2]: 643 mM
GUI of Sample (Glucose Utilization Index in the presence of 5% (v/v) of the ionic liquid phase) [3]: 100

CC1CCC(=O)N1CC[N+](C)(C)CCO.O=S(=O)([N-]S(=O)(=O)C(F)(F)F)C(F)(F)F (centres unmarked) [Example 8, 1-(N,N,N-dimethyl(hydroxyethyl)aminoethyl)-5-methylpyrrolidone-2-one bis(trifluoromethane)sulfonamide]
mM isobutanol [1]: 417 mM
GUI of Sample (Glucose Utilization Index in the presence of 5% (v/v) of the ionic liquid phase) [3]: 89.3

COCC[N+](C)(C)CCN1C(=O)CCC1C (centres unmarked) [Example 4, 1-(N,N,N-dimethyl(methylethoxy)aminoethyl)-5-methylpyrrolidin-2-one hexafluoropropanesulfonate]
mM isobutanol [1]: 423 mM
mM Ethanol [2]: 645 mM
GUI of Sample (Glucose Utilization Index in the presence of 5% (v/v) of the ionic liquid phase) [3]: 21.9

1-Butyl-3-methylimidazolium levulinate [Example 5]
mM Ethanol [2]: 596 mM
